Assay results taken from ChEMBL document CHEMBL4842379 (J Med Chem, 2021).
Activity calls are given as the source filed them. The rule behind the calls is not given here.

Assays:
[1] = Reversal of resistance to paclitaxel-induced cytotoxicity in paclitaxel-resistant human SW-620/AD300 cells assessed as reduction in paclitaxel IC50 at 2 uM pre-incubated for 4 hrs followed by paclitaxel addition and measured after 72 hrs by MTT assay; assay type: functional, cell-based
[2] = Cytotoxicity against paclitaxel-resistant human SW620/AD300 cells measured after 72 hrs by MTT assay; assay type: functional, cell-based; conditions: SW-620, 72 h
HEK-293T = experiment: Cytotoxicity against human HEK293T cells expressing ABCB1 (unknown origin) measured after 72 hrs by MTT assay; assay type: functional, cell-based
SW-620 [3] = experiment: Effect on P-gp subcellular localization in paclitaxel-resistant human SW620/AD300 cells measured after 72 hrs by Hoechst 33258 staining based immunocytochemistry analysis; assay type: functional, cell-based
[4] = Toxicity in mouse xenografted with paclitaxel-resistant human SW620/AD300 cells assessed as change in body weight at 20 mg/kg, po in presence of 5 mg/kg paclitaxel treated for 3 days measured for 19 days; assay type: organism-based; conditions: in vivo, 456 h, time 19 day
[5] = Reversal of resistance to paclitaxel-induced cytotoxicity in human SW620/AD300 cells assessed as reduction in paclitaxel IC50 at 0.5 uM pre-incubated for 4 hrs followed by paclitaxel addition and measured after 72 hrs by MTT assay; assay type: functional, cell-based; conditions: SW-620
[6] = Toxicity in mouse xenografted with paclitaxel-resistant human SW620/AD300 cells assessed as change in body weight at 20 mg/kg, po measured for 19 days; assay type: organism-based; conditions: in vivo, 456 h, time 19 day
[7] = Reversal of resistance to colchicine-induced cytotoxicity in human SW620/AD300 cells assessed as reduction in colchicine IC50 at 0.5 uM pre-incubated for 4 hrs followed by colchicine addition and measured after 72 hrs by MTT assay; assay type: functional, cell-based; conditions: SW-620
SW-620 [8] = experiment: Effect on intracellular Rhodamine 123 accumulation in human SW620 cells at 0.5 to 2 uM incubated for 24 hrs by flow cytometry; assay type: functional, cell-based; conditions: dose 0.5-2 µM
[9] = biological target: T1, ATP-dependent translocase ABCB1 (Homo sapiens, UniProt P08183); experiment: Stabilization of P-gp in paclitaxel-resistant human SW620/AD300 cells at higher temperature incubated for 30 mins by Western blot based cellular thermal shift assay; assay type: cell-based; conditions: sw-620, 0.5 h
T1 sequence (P08183 whole entry): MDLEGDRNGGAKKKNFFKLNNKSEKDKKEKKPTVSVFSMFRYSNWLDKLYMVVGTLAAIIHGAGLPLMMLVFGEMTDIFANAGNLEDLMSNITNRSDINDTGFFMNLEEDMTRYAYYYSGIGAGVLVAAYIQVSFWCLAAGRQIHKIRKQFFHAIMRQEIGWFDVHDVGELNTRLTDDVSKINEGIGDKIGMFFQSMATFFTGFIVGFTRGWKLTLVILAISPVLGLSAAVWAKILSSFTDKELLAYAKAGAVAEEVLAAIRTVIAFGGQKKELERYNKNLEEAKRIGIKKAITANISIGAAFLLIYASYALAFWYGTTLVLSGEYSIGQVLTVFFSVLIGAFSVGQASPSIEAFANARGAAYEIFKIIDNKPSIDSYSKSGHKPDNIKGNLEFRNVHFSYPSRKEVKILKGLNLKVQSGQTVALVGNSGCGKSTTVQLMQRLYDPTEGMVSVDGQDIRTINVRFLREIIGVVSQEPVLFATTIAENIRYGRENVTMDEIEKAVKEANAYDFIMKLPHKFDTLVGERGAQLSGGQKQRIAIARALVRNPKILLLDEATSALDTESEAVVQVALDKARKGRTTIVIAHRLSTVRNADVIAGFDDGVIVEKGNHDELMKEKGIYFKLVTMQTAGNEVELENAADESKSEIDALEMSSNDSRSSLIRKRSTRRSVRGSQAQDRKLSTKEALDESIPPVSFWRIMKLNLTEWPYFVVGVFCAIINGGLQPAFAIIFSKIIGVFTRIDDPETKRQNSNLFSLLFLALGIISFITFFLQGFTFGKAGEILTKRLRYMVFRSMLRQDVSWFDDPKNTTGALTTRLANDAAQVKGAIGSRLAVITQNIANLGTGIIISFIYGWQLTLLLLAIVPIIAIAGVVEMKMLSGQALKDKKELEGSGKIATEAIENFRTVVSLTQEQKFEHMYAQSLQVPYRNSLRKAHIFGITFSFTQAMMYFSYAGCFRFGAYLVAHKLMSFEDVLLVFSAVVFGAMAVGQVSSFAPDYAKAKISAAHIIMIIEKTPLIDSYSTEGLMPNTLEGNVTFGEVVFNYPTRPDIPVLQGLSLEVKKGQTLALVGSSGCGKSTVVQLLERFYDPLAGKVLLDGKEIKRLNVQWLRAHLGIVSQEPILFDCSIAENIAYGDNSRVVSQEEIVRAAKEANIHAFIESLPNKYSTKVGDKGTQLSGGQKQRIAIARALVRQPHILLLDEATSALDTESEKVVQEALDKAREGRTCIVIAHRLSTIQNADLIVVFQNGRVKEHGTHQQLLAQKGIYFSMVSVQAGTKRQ

SW-620 [10] = experiment: Reduction in P-gp expression in paclitaxel-resistant human SW620/AD300 cells measured after 72 hrs by Western blotting analysis; assay type: functional, cell-based
[11] = biological target: T1, ATP-dependent translocase ABCB1; experiment: Inhibition of recombinant human P-gp ATPase activity incubated for 60 mins by luminescence based Glo assay
[12] = Reversal of resistance to colchicine-induced cytotoxicity in human SW620/AD300 cells assessed as reduction in colchicine IC50 at 2 uM pre-incubated for 4 hrs followed by colchicine addition and measured after 72 hrs by MTT assay; assay type: functional, cell-based; conditions: SW-620
[13] = Reversal of resistance to colchicine-induced cytotoxicity in human SW620/AD300 cells assessed as reduction in colchicine IC50 at 1 uM pre-incubated for 4 hrs followed by colchicine addition and measured after 72 hrs by MTT assay; assay type: functional, cell-based; conditions: SW-620
Cytochrome P450 3A4 = Cytochrome P450 3A4 (Homo sapiens, UniProt P08684); experiment: Inhibition of human recombinant CYP3A4 by fluorescence assay; assay type: ADME
Sequence of Cytochrome P450 3A4 (P08684 whole entry): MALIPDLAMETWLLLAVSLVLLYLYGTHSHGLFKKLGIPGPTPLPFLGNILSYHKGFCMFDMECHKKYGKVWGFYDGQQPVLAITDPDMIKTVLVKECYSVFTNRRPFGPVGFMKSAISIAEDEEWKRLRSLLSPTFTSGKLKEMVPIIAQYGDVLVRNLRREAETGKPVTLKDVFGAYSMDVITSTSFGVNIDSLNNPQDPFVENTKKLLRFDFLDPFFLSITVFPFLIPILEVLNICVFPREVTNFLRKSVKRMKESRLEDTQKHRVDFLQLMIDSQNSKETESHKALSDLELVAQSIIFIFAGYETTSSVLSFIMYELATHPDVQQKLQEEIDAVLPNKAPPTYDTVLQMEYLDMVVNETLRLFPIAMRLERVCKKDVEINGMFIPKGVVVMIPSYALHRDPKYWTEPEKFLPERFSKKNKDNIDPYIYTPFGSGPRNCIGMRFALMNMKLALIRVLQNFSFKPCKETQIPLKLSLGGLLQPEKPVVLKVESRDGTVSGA

[14] = Reversal of resistance to paclitaxel-induced cytotoxicity in human SW620/AD300 cells assessed as reduction in paclitaxel IC50 at 1 uM pre-incubated for 4 hrs followed by paclitaxel addition and measured after 72 hrs by MTT assay; assay type: functional, cell-based; conditions: SW-620
[15] = biological target: T1, ATP-dependent translocase ABCB1; experiment: Inhibition of P-gp in paclitaxel-resistant human SW620/AD300 cells assessed as accumulation of paclitaxel incubated for 24 hrs by HPLC analysis; assay type: cell-based; conditions: sw-620, 24 h
[16] = biological target: T1, ATP-dependent translocase ABCB1; experiment: Inhibition of P-gp in paclitaxel-resistant human SW620/AD300 cells assessed as rescue of intracellular Rhodamine 123 accumulation incubated for 24 hrs by flow cytometry; assay type: cell-based; conditions: sw-620, 24 h, dose 0.5-2 µM
SW-620 [17] = experiment: In vivo antitumor activity against paclitaxel-resistant human SW620/AD300 cells xenografted in mouse assessed as reduction in tumor volume at 20 mg/kg, po in presence of 5 mg/kg paclitaxel treated for 3 days measured for 19 days; assay type: functional, organism-based; conditions: time 19.0 day
[18] = biological target: Epidermal growth factor receptor (Homo sapiens, UniProt P00533, L858R); experiment: Inhibition of EGFR L858R mutant (unknown origin)
Sequence of Epidermal growth factor receptor (P00533 25-1210 L858R limits assumed): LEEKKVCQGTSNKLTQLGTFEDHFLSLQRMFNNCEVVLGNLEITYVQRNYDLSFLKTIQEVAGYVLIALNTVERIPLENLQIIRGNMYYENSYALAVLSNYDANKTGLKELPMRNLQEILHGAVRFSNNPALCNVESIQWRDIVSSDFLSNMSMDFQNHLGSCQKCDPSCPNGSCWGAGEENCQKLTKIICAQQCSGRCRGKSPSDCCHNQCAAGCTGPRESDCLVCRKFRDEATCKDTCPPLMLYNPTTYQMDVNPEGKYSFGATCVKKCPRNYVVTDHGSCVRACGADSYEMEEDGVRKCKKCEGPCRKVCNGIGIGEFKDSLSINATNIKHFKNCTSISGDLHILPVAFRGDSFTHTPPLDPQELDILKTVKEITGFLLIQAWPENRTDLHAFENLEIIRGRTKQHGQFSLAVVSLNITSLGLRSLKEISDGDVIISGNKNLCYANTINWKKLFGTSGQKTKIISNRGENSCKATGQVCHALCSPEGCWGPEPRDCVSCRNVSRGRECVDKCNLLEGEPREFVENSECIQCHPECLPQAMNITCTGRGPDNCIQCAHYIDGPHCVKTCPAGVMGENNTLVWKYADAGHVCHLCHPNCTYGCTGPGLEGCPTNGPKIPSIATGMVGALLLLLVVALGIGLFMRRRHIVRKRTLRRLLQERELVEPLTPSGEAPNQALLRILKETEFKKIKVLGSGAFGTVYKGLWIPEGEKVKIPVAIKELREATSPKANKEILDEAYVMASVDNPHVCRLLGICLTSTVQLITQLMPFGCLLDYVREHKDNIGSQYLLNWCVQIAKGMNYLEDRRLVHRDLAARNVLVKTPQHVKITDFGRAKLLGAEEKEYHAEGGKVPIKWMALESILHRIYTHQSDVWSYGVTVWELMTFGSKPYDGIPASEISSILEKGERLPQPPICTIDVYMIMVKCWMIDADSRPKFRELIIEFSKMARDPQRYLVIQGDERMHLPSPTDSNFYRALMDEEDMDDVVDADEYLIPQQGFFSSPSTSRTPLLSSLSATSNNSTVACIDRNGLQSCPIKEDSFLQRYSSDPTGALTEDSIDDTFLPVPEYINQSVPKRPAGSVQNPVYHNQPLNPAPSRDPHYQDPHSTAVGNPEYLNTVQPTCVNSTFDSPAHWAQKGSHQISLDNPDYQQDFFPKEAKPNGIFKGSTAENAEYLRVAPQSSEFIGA

| Structure (SMILES) | Paclitaxel IC50 in presence of compound at 2 uM [1] [nM] | further results |
| --- | --- | --- |
| C#CCn1c(-c2ccccc2)c(-c2ncnc3cc(OC)c(OCCCN4CCOCC4)cc23)c2ccccc21 | 2200 | – |
| COc1cc2ncnc(-c3c(CCc4ccccc4)[nH]c4ccccc34)c2cc1OCCCN1CCOCC1 | 200 | – |
| CCCCn1cc(-c2ncnc3cc(OC)c(OCCCN4CCOCC4)cc23)c2ccccc21 | 400 | – |
| COc1cc2ncnc(-c3cn(Cc4ccccc4)c4cccc(OC)c34)c2cc1OCCCN1CCOCC1 | 1000 | – |
| COc1cc2ncnc(-c3c(-c4ccccc4)n(C)c4ccccc34)c2cc1OCCCN1CCOCC1 | 100 | – |
| COc1cc2ncnc(-c3c(-c4ccccc4)n(Cc4ccc(Cl)cc4)c4ccccc34)c2cc1OCCCN1CCOCC1 | 7 | – |
| COc1cc2ncnc(-c3c(-c4ccccc4)n(Cc4cccc(Cl)c4)c4ccccc34)c2cc1OCCCN1CCOCC1 | 20 | – |
| COc1cc2ncnc(-c3c(-c4cccc(Br)c4)[nH]c4ccccc34)c2cc1OCCCN1CCOCC1 | 3000 | – |
| COc1cc2c(c(OC)c1OC)-c1ccc(OC)c(=O)cc1[C@@H](NC(C)=O)CC2 [COLCHICINE] | – | IC50 [2]: 62500 nM; IC50 (HEK-293T): 801000 nM |
| CCCCc1ccc(-c2[nH]c3ccccc3c2-c2ncnc3cc(OC)c(OCCCN4CCOCC4)cc23)cc1 | 100 | – |
| COc1cc2ncnc(-c3c(-c4ccccc4)n(CCCc4ccccc4)c4ccccc34)c2cc1OCCCN1CCOCC1 | 6 | – |
| CCn1c(-c2ccccc2)c(-c2ncnc3ccccc23)c2ccccc21 | 2200 | – |
| CCn1c(-c2ccccc2)c(-c2ncnc3ccc(Br)cc23)c2ccccc21 | 2200 | – |
| COc1cc2ncnc(-c3c(-c4ccc(Cl)cc4)[nH]c4ccccc34)c2cc1OCCCN1CCOCC1 | 20 | – |
| COc1cc2ncnc(-c3c(-c4ccc(C(C)C)cc4)[nH]c4ccccc34)c2cc1OCCCN1CCOCC1 | 300 | – |
| COc1cc2ncnc(-c3c(-c4ccc(C)cc4)[nH]c4ccccc34)c2cc1OCCCN1CCOCC1 | 300 | – |
| COc1cc2ncnc(-c3c(-c4ccc(-c5ccccc5)cc4)[nH]c4ccccc34)c2cc1OCCCN1CCOCC1 | 20 | – |
| CC(=O)O[C@H]1C(=O)[C@@]2(C)[C@H]([C@H](OC(=O)c3ccccc3)[C@]3(O)C[C@H](OC(=O)[C@H](O)[C@@H](NC(=O)c4ccccc4)c4ccccc4)C(C)=C1C3(C)C)[C@]1(OC(C)=O)CO[C@@H]1C[C@@H]2O [PACLITAXEL] | – | IC50 [2]: 2300 nM; IC50 (HEK-293T): 36400 nM |
| COc1cc2ncnc(-c3c(-c4ccc(Br)cc4)[nH]c4ccccc34)c2cc1OCCCN1CCOCC1 | 200 | – |
| COc1cc2ncnc(-c3c(-c4cccc(F)c4)[nH]c4ccccc34)c2cc1OCCCN1CCOCC1 | 800 | – |
| CCn1c(-c2ccccc2)c(-c2ncnc3cc(OC)c(OC)cc23)c2ccccc21 | 1600 | – |
| COc1cc2ncnc(-c3c(-c4cccc(Cl)c4)[nH]c4ccccc34)c2cc1OCCCN1CCOCC1 | 200 | – |
| COc1cc2ncnc(-c3c(-c4ccc5ccccc5c4)[nH]c4ccccc34)c2cc1OCCCN1CCOCC1 | 40 | – |

| Structure (SMILES) | Paclitaxel IC50 in presence of compound at 2 uM [1] [nM] | further results |
| --- | --- | --- |
| CCn1cc(-c2ncnc3cc(OC)c(OCCCN4CCOCC4)cc23)c2ccccc21 | 300 | – |
| COc1cc2ncnc(-c3c(-c4ccc(F)cc4)[nH]c4ccccc34)c2cc1OCCCN1CCOCC1 | 300 | – |
| CCn1c(-c2ccccc2)c(-c2nc(-c3ccccc3)nc3ccccc23)c2ccccc21 | 1200 | – |
| COc1cc2ncnc(-c3c(-c4cccc(C)c4)[nH]c4ccccc34)c2cc1OCCCN1CCOCC1 | 400 | – |
| COc1cc2ncnc(-c3c(-c4ccccc4)[nH]c4ccccc34)c2cc1OCCCN1CCOCC1 | 800 | – |
| COc1cc2ncnc(-c3c(-c4ccccc4)n(Cc4ccccc4Br)c4ccccc34)c2cc1OCCCN1CCOCC1 | – | Activity (SW-620 [3]): inactive; Activity [4]: Non-Toxic; IC50 [5]: 100 nM; Activity [6]: Non-Toxic; IC50 [7]: 26500 nM; Activity (SW-620 [8]): inactive; Activity [9]: Dose-Dependent Effect; Activity (SW-620 [10]): inactive; IC50 [11]: 5100 nM; Activity ([11]; human, 1 h, time 60 min): Dose-Dependent Effect; IC50 [12]: 6200 nM; IC50 [13]: 17200 nM; IC50 (Cytochrome P450 3A4): 4100 nM; IC50 [14]: 20 nM; Activity [15]: Dose-Dependent Effect; Activity [16]: Dose-Dependent Effect; Activity (SW-620 [17]): Active |
| CCn1c(-c2ccccc2)c(-c2ncnc3cc(OCCOC)c(OCCOC)cc23)c2ccccc21 | 800 | – |
| COc1cc2ncnc(-c3c(-c4ccc(C(F)(F)F)cc4)[nH]c4ccccc34)c2cc1OCCCN1CCOCC1 | 700 | – |
| CCc1ccc(-c2[nH]c3ccccc3c2-c2ncnc3cc(OC)c(OCCCN4CCOCC4)cc23)cc1 | 70 | – |
| COc1ccc(CCN(C)CCCC(C#N)(c2ccc(OC)c(OC)c2)C(C)C)cc1OC (configuration not stated) | – | Activity (SW-620 [8]): inactive; IC50 [12]: 20600 nM; Activity [15]: Dose-Dependent Effect |
| C=CCn1c(-c2ccccc2)c(-c2ncnc3cc(OC)c(OCCCN4CCOCC4)cc23)c2ccccc21 | 2300 | – |
| COc1cc2ncnc(-c3cn(Cc4ccccc4)c4ccccc34)c2cc1OCCCN1CCOCC1 | 50 | – |
| COc1cc2ncnc(-c3cn(Cc4ccc(C#N)cc4)c4ccccc34)c2cc1OCCCN1CCOCC1 | 200 | – |
| CCn1c(-c2ccccc2)c(-c2ncnc3cc(OC)c(OCCCN4CCOCC4)cc23)c2ccccc21 | 700 | IC50 [18]: 1.3 nM |
| COc1ccc2c(c1)c(-c1ncnc3cc(OC)c(OCCCN4CCOCC4)cc13)cn2Cc1ccccc1 | 200 | – |
| COc1cc2ncnc(-c3cn(Cc4cccc(C)c4)c4ccccc34)c2cc1OCCCN1CCOCC1 | 30 | – |
| COc1cc2ncnc(-c3c(-c4ccccc4)n(Cc4cccc(Br)c4)c4ccccc34)c2cc1OCCCN1CCOCC1 | 20 | – |
| COc1ccc2c(-c3ncnc4cc(OC)c(OCCCN5CCOCC5)cc34)cn(Cc3ccccc3)c2c1 | 100 | – |
| COc1cc2ncnc(-c3c(Cc4ccccc4)[nH]c4ccccc34)c2cc1OCCCN1CCOCC1 | 2000 | – |
| COc1cc2ncnc(-c3c(-c4ccccc4)n(Cc4cccc(C(F)(F)F)c4)c4ccccc34)c2cc1OCCCN1CCOCC1 | 20 | – |
| COc1cc2ncnc(-c3cn(Cc4ccccc4Cl)c4ccccc34)c2cc1OCCCN1CCOCC1 | 20 | – |
| COc1cc2ncnc(-c3c(-c4cccc([N+](=O)[O-])c4)[nH]c4ccccc34)c2cc1OCCCN1CCOCC1 | 600 | – |
| COc1cc2ncnc(-c3c(-c4ccccc4F)[nH]c4ccccc34)c2cc1OCCCN1CCOCC1 | 500 | – |
